Test results as given in ChEMBL document CHEMBL3120052, “HCV polymerase inhibitors” (ACS Med Chem Lett, 2014).

Test system: Hepatitis C virus
Assay: Antiviral activity against HCV genotype 1b expressing wild type NS3-NS5B infected in HuH7 luc/neo cells assessed as inhibition of RNA replication after 3 days by luciferase reporter gene assay
Type: functional, organism-based, Hepacivirus hominis
Settings: Huh-7, 72 h

Row | SMILES | EC50
1 | C[C@H](NP(=O)(OC[C@H]1O[C@@H](n2ccc(=O)[nH]c2=O)[C@](C)(N)[C@@H]1O)Oc1ccccc1)C(=O)OC1CCCCCCC1 (stereo partly drawn) | 0.29 µM
2 | C[C@H](NP(=O)(OC[C@H]1O[C@@H](n2ccc(=O)[nH]c2=O)[C@](C)(NC(=O)OC(C)(C)C)[C@@H]1O)Oc1ccccc1)C(=O)OC1CCCCCCC1 (stereo partly drawn) | 15 µM
3 | C[C@H](NP(=O)(OC[C@H]1O[C@@H](n2ccc(=O)[nH]c2=O)[C@](C)(NC(=O)OC(C)(C)C)[C@@H]1O)Oc1ccccc1)C(=O)OC1CCCC1 (stereo partly drawn) | 4.7 µM
4 | C[C@H](NP(=O)(OC[C@H]1O[C@@H](n2ccc(=O)[nH]c2=O)[C@](C)(N)[C@@H]1O)Oc1ccccc1)C(=O)OC1CCCC1 (stereo partly drawn) | 0.47 µM
5 | C[C@H](NP(=O)(OC[C@H]1O[C@@H](n2ccc(=O)[nH]c2=O)[C@](C)(NC(=O)OC(C)(C)C)[C@@H]1O)Oc1ccccc1)C(=O)OCCC(C)(C)C (stereo partly drawn) | 2.3 µM
6 | C[C@H](NP(=O)(OC[C@H]1O[C@@H](n2ccc(=O)[nH]c2=O)[C@](C)(N)[C@@H]1O)Oc1ccccc1)C(=O)OCCC(C)(C)C (stereo partly drawn) | 0.49 µM
7 | C[C@H](NP(=O)(OC[C@H]1O[C@@H](n2ccc(=O)[nH]c2=O)[C@](C)(NC(=O)OC(C)(C)C)[C@@H]1O)Oc1ccccc1)C(=O)OC1CCCCCC1 (stereo partly drawn) | 3 µM
8 | C[C@H](NP(=O)(OC[C@H]1O[C@@H](n2ccc(=O)[nH]c2=O)[C@](C)(N)[C@@H]1O)Oc1ccccc1)C(=O)OC1CCCCCC1 (stereo partly drawn) | 0.19 µM
